# Literature values in patent US20210106004A1, “THERMOPLASTIC MATERIALS HAVING BENEFICIAL PROPERTIES AND PROCESSES FOR PROVIDING THE SAME” (QuadSil, Inc., priority 2016, published 2021).
# Settings: background statement
structure (smiles),measurement,value
CCCCCCCCCCCCCCCCCC[N+](C)(C)CCC[Si](OC)(OC)OC.[Cl-] [3-(trimethoxysilyl) propyldimethyloctadecyl ammonium chloride],temperature at which thermal decomposition begins,125 °C
